We go through 14 compounds from PubChem BioAssay AID220 (DTP/NCI, 2004).

Several values for one entry are separate records, joined by “and”; a condition that tells them apart may be missing. Equal values may be shown once. Inconclusive results are not listed.

This experiment has as its system CD8F1 mice, subcutaneous mammary adenocarcinoma, T/C%. The experiment is described as follows: NCI In Vivo Anticancer Drug Screen. Data for tumor model Mammary Adenocarcinoma CD8F1 (subcutaneous) in CD8F1. The settings on record: higher = larger tumour. The method, boiled down:
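Mice carrying transplanted tumors received test compound, and survival or tumor size was recorded. Each value is the treated-group measurement divided by the corresponding measurement in vehicle-dosed controls.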

The mark [1] stands for this setting: endpoint: median tumor weight (est.), dose: 25.0 mg/kg/injection, schedule: Q07DX005 (ip), vehicle: Klucel (hydroxypropylcellulose) (HPC).
The mark [2] stands for this setting: endpoint: median tumor weight (est.), dose: 50.0 mg/kg/injection, schedule: Q07DX005 (ip), vehicle: Klucel (hydroxypropylcellulose) (HPC).
Where [3] appears, read: endpoint: median tumor weight (est.), dose: 200.0 mg/kg/injection, schedule: Q07DX005 (ip), vehicle: Klucel (hydroxypropylcellulose) (HPC).
Setting [4] is: endpoint: median tumor weight change, dose: 500.0 mg/kg/injection, schedule: Q01DX001 (ip), vehicle: Klucel (hydroxypropylcellulose) (HPC).
Where [5] appears, read: endpoint: median tumor weight change, dose: 1000.0 mg/kg/injection, schedule: Q01DX001 (ip), vehicle: Klucel (hydroxypropylcellulose) (HPC).
[6] abbreviates: endpoint: median tumor weight change, dose: 2000.0 mg/kg/injection, schedule: Q01DX001 (ip), vehicle: Klucel (hydroxypropylcellulose) (HPC).
The mark [7] stands for this setting: endpoint: median tumor weight change, dose: 25.0 mg/kg/injection, schedule: Q01DX001 (ip), vehicle: saline.
Setting [8] is: endpoint: median tumor weight change, dose: 50.0 mg/kg/injection, schedule: Q01DX001 (ip), vehicle: saline.
[9] abbreviates: endpoint: median tumor weight change, dose: 250.0 mg/kg/injection, schedule: Q01DX001 (ip), vehicle: saline with Tween-80.
The mark [10] stands for this setting: endpoint: median tumor weight change, dose: 500.0 mg/kg/injection, schedule: Q01DX001 (ip), vehicle: saline with Tween-80.
Setting [11] is: endpoint: median tumor weight (est.), dose: 12.5 mg/kg/injection, schedule: Q07DX005 (ip), vehicle: saline with Tween-80.
Setting [12] is: endpoint: median tumor weight (est.), dose: 25.0 mg/kg/injection, schedule: Q07DX005 (ip), vehicle: saline with Tween-80.

Regarding `C[C@]12CCC(=O)C=C1CC[C@@H]1[C@@H]2C(=O)C[C@@]2(C)[C@H]1CC[C@]2(O)C(=O)CO`, the T/C was 68 % of control (endpoint: median tumor weight (est.), dose: 2.0 mg/kg/injection, schedule: Q07DX005 (ip), vehicle: Klucel (hydroxypropylcellulose) (HPC)); 91 % of control (endpoint: median tumor weight (est.), dose: 4.0 mg/kg/injection, schedule: Q07DX005 (ip), vehicle: Klucel (hydroxypropylcellulose) (HPC)); 97 % of control (endpoint: median tumor weight (est.), dose: 8.0 mg/kg/injection, schedule: Q07DX005 (ip), vehicle: Klucel (hydroxypropylcellulose) (HPC)); 71 % of control (endpoint: median tumor weight (est.), dose: 16.0 mg/kg/injection, schedule: Q07DX005 (ip), vehicle: Klucel (hydroxypropylcellulose) (HPC)); 80 % of control under setting [1]; 67 % of control under setting [2]. The T/C under setting [3] was 35 % of control and 58 % of control; the T/C under setting [4] is 46 % of control and 64 % of control; the T/C under setting [5] was 33 % of control and 49 % of control; the T/C under setting [6] is 24 % of control and 44 % of control; the T/C (endpoint: median tumor weight change, dose: 4000.0 mg/kg/injection, schedule: Q01DX001 (ip), vehicle: Klucel (hydroxypropylcellulose) (HPC)) was -18 % of control.

As for `O=CC=O`, the T/C under setting [1] was 92 % of control and 100 % of control.

Turning to `CC1(C)COCN1COCCOCN1COCC1(C)C`, the T/C is, setting by setting: under setting [7], 100 % of control; under setting [8], 109 % of control; (endpoint: median tumor weight change, dose: 100.0 mg/kg/injection, schedule: Q01DX001 (ip), vehicle: saline) 95 % of control.

`S=C(Nc1ccc(Cl)c(Cl)c1)N1c2ccccc2-n2cccc2C1c1cccnc1` (stereo not drawn): the T/C was 48 % of control and 67 % of control (endpoint: median tumor weight change, dose: 250.0 mg/kg/injection, schedule: Q01DX001 (ip), vehicle: Klucel (hydroxypropylcellulose) (HPC)); 49 % of control and 57 % of control under setting [4]; 50 % of control and 70 % of control under setting [5]; -11 % of control under setting [6].

In the case of `O=C(O)CSc1nc(-c2ccccc2)c(-c2ccccc2)n1-c1ccccn1`, the T/C by setting is: (endpoint: median tumor weight (est.), dose: 12.5 mg/kg/injection, schedule: Q07DX005 (ip), vehicle: water) 63 % of control and 72 % of control; (endpoint: median tumor weight (est.), dose: 25.0 mg/kg/injection, schedule: Q07DX005 (ip), vehicle: water) 217 % of control and 78 % of control; (endpoint: median tumor weight (est.), dose: 200.0 mg/kg/injection, schedule: Q07DX005 (ip), vehicle: water) 64 % of control.

On to `CCN(CC)c1ccc2[nH]c3c(C(N)=O)cc(=O)c(=O)c=3oc2c1`, for which the T/C was 92 % of control (endpoint: median tumor weight change, dose: 62.5 mg/kg/injection, schedule: Q01DX001 (ip), vehicle: saline with Tween-80); 121 % of control under setting [9]; 28 % of control under setting [10].

On to `Oc1c(Cl)cc(C(c2cc(Cl)c(O)c(Cl)c2)C(c2cc(Cl)c(O)c(Cl)c2)c2cc(Cl)c(O)c(Cl)c2)cc1Cl`, for which the T/C is 540 % of control (endpoint: median tumor weight (est.), dose: 12.5 mg/kg/injection, schedule: Q07DX005 (ip), vehicle: Klucel (hydroxypropylcellulose) (HPC)); 341 % of control under setting [1]; 294 % of control under setting [2]; 84 % of control (endpoint: median tumor weight (est.), dose: 100.0 mg/kg/injection, schedule: Q07DX005 (ip), vehicle: Klucel (hydroxypropylcellulose) (HPC)); 192 % of control under setting [3].

In the case of `CC[C@H]1CN2CCc3cc(OC)c(OC)cc3[C@@H]2C[C@@H]1C[C@H]1NCCc2cc(OC)c(OC)cc21`, the T/C runs as follows: (endpoint: mean tumor weight, dose: 0.88 mg/kg/injection, schedule: Q07DX006 (ip), vehicle: saline) 46 % of control; (endpoint: mean tumor weight, dose: 1.75 mg/kg/injection, schedule: Q07DX005 (ip), vehicle: saline) 163 % of control; (endpoint: mean tumor weight, dose: 1.75 mg/kg/injection, schedule: Q07DX006 (ip), vehicle: saline) 65 % of control; (endpoint: mean tumor weight, dose: 3.5 mg/kg/injection, schedule: Q07DX005 (ip), vehicle: saline) 258 % of control; (endpoint: mean tumor weight, dose: 3.5 mg/kg/injection, schedule: Q07DX006 (ip), vehicle: saline) 42 % of control; (endpoint: mean tumor weight, dose: 7.0 mg/kg/injection, schedule: Q07DX005 (ip), vehicle: saline) 153 % of control. The T/C was 73 % of control (endpoint: mean tumor weight, dose: 7.0 mg/kg/injection, schedule: Q07DX006 (ip), vehicle: saline); 156 % of control (endpoint: mean tumor weight, dose: 14.0 mg/kg/injection, schedule: Q07DX005 (ip), vehicle: saline); 96 % of control (endpoint: mean tumor weight, dose: 14.0 mg/kg/injection, schedule: Q07DX006 (ip), vehicle: saline); 214 % of control (endpoint: median tumor weight (est.), dose: 1.75 mg/kg/injection, schedule: Q07DX005 (ip), vehicle: saline); 166 % of control (endpoint: median tumor weight (est.), dose: 3.5 mg/kg/injection, schedule: Q07DX005 (ip), vehicle: saline); 92 % of control (endpoint: median tumor weight (est.), dose: 7.0 mg/kg/injection, schedule: Q07DX005 (ip), vehicle: saline). Further, the T/C (endpoint: median tumor weight (est.), dose: 28.0 mg/kg/injection, schedule: Q07DX005 (ip), vehicle: saline) is 86 % of control.

`Cc1c2ccccc2cc2cccc[n+]12`: the T/C by setting is: (endpoint: median tumor weight change, dose: 20.0 mg/kg/injection, schedule: Q01DX001 (ip), vehicle: saline) 116 % of control; under setting [7], 123 % of control; (endpoint: median tumor weight change, dose: 40.0 mg/kg/injection, schedule: Q01DX001 (ip), vehicle: saline) 119 % of control; under setting [8], 59 % of control.

On to `CC(/C=C/c1ccccc1)=Nc1ccccc1`, for which the T/C runs as follows: (endpoint: median tumor weight change, dose: 125.0 mg/kg/injection, schedule: Q01DX001 (ip), vehicle: saline with Tween-80) 107 % of control; under setting [9], 97 % of control; under setting [10], 99 % of control.

Regarding `O=C1CN(CN2CCOCC2)C(=O)CN1CN1CCOCC1`, the T/C is 170 % of control (endpoint: median tumor weight (est.), dose: 12.5 mg/kg/injection, schedule: Q07DX005 (ip), vehicle: saline); 153 % of control (endpoint: median tumor weight (est.), dose: 50.0 mg/kg/injection, schedule: Q07DX005 (ip), vehicle: saline); 100 % of control (endpoint: median tumor weight (est.), dose: 200.0 mg/kg/injection, schedule: Q07DX005 (ip), vehicle: saline).

Consider `CN(C)CCOc1ccc2c(c1)C/C(=C/c1ncc([N+](=O)[O-])n1C)C2=O`, for which the T/C is, setting by setting: under setting [11], 113 % of control; under setting [12], 100 % of control; (endpoint: median tumor weight (est.), dose: 50.0 mg/kg/injection, schedule: Q07DX005 (ip), vehicle: saline with Tween-80) 93 % of control; (endpoint: median tumor weight (est.), dose: 100.0 mg/kg/injection, schedule: Q07DX005 (ip), vehicle: saline with Tween-80) 61 % of control.

For the compound `COc1ccc(C(=O)C(CN(C)C)CN(C)C)cc1`, the T/C (endpoint: median tumor weight change, dose: 7.81 mg/kg/injection, schedule: Q01DX001 (ip), vehicle: saline) was 103 % of control; the T/C (endpoint: median tumor weight change, dose: 15.62 mg/kg/injection, schedule: Q01DX001 (ip), vehicle: saline) was 88 % of control; the T/C (endpoint: median tumor weight change, dose: 31.25 mg/kg/injection, schedule: Q01DX001 (ip), vehicle: saline) was 84 % of control.

Take `OCC1OC(n2cnc3cc(Cl)c(Cl)cc32)C(O)C1O` (stereo not drawn): the T/C under setting [11] was 79 % of control; the T/C under setting [12] is 89 % of control and 92 % of control; the T/C (endpoint: median tumor weight (est.), dose: 200.0 mg/kg/injection, schedule: Q07DX005 (ip), vehicle: saline with Tween-80) is 80 % of control.
